Laboratory results published in US5679671A, “Amino acid derivative” (Eisai Co., Ltd., priority 1993, dated 1997).

Tests used:
[1] = system: 2K-1C-Goldblatt Hypertensive Rat; assay: Hypotensive effect on 2K-1C-Goldblatt hypertensive rat, oral (Experiment C-3); assay type: in vivo, male Sprague Dawley rats
Protocol: A silver clip with a slit of 0.25 mm in width was fitted into the left renal artery of each of male Sprague Dawley rats (aged 6 to 7 weeks) and, after three weeks, rats showing a systolic blood pressure of 180 mmHg or above were employed. One to several drops of a 1N aqueous solution of sodium hydroxide were dropped into purified water and each test compound was dissolved or emulsified therein to prepare it at a dose of 5 ml/kg, followed by orally administration. After keeping the rats in an incubator at 45° C. for 5 to 10 minutes, the systolic blood pressure was measured by the indirect method of tail artery plethysmography. As a comparative compound, [4S-[4α,7α(R*),12bβ]]-7-[(1-oxo-2-(S)-thio-3-phenyl-propyl)amino[-1,2,3,4,6,7,8,12b-octahydro-6-oxo-pyrido[2,1-a][2]benzazepine-4-carboxylic acid was used.

ACE [2] = biological target: T1, ACE (Rattus norvegicus, UniProt P47820); assay: ACE inhibition activity (Experiment E-1); assay type: biochemical; conditions: rat lung membrane fraction, pH 8.3
T1 construct: membrane fraction prepared from rat lung; from tissue; host or cells: rat lung, membrane fraction (method of Wu-Wong et al.)
T1 sequence (P47820 36-1313): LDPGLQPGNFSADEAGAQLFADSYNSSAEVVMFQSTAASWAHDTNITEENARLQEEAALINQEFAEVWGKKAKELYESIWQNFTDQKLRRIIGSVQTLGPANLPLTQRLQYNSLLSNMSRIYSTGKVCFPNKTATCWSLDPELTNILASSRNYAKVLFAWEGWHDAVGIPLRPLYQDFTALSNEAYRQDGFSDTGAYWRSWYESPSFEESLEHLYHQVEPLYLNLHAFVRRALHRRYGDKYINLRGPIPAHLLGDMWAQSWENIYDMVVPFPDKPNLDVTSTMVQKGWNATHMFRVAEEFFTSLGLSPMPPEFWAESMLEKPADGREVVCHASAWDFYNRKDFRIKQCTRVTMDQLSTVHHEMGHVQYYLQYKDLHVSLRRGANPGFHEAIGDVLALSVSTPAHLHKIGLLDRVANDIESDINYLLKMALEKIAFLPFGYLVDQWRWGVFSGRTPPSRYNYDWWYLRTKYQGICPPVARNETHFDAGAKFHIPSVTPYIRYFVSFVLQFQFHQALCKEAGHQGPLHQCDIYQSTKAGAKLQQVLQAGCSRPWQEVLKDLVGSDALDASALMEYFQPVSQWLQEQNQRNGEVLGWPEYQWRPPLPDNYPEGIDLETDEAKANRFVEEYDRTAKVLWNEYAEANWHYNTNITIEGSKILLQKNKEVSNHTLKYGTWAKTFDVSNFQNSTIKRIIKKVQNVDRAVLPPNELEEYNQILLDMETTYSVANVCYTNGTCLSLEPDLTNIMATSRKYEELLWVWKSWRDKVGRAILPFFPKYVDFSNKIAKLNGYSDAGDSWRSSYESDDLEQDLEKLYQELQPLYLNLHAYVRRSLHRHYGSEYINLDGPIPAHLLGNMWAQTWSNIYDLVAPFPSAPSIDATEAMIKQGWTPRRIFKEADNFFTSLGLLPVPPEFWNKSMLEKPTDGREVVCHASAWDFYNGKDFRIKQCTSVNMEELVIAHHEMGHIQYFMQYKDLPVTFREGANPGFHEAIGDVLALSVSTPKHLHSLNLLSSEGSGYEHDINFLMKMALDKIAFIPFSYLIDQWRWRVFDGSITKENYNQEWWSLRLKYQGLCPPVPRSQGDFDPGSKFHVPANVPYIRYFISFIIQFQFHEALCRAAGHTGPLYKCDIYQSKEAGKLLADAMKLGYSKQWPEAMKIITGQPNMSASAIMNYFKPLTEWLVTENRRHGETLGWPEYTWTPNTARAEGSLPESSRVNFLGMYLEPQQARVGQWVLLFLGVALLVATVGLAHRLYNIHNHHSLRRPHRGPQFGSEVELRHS
Protocol: (§1) As a source of the enzyme ACE, a membrane fraction prepared from rat lung in accordance with the method of Wu-Wong et al. (Characterization of Endthelin Converting Enzyme in Rat Lung., Jinshyum R. Wu-Wong, Gerald, P. Budzik, Edward M. Devine and Terry J. Opgenorth, Biochem. Biophys. Res. Commun., 1990, 171, 1291-1296.) was used. The ACE activity was determined with the use of a modification (modified to a borate buffer pH 8.3) of the method of Cushman and Cheung (Spectrophotometric Assay and Properties of the Angiotensin-Converting Enzyme of Rabbit Lung., Cushman D. W. and Cheung H. S., 1971, 20, 1637-1648.). Now the procedure will be briefly described.
In the presence of ACE, the hippurate liberated from hippuryl-histidyl-leucine (Hippuryl-His-Leu (PeptideInstitute Inc., Japan)) was extracted with ethyl acetate and then the absorbance was measured at a wavelength of 228 nm.
To determine the NEP inhibition activity and the ACE inhibition activity, the inhibitor was added to the assay systems of both enzyme activities as described above in such a manner as to give the final concentrations of 1, 3, 10, 30, 100, […] and 1000 nM and inhibition curves were prepared. Then the concentration at which 50% inhibition was achieved was taken as IC50.

ACE [3] = biological target: T1, ACE; assay: ACE inhibition activity (Experiment F-1); assay type: biochemical; conditions: rat lung membrane fraction, pH 8.3
Protocol: as §1, with “Gerald” for “Gerald,”, “M,” for “M.”
In the presence of ACE, the hippurate liberated from hippuryl-histidyl-leucine (Hippuryl-His-Leu (Peptide Institute Inc., Japan)) was extracted with ethyl acetate and then the absorbance was measured at a wavelength of 228 nm.
With respect to the NEP inhibition activity and the ACE inhibition activity, the inhibitor was added to the assay systems of both enzyme activities as described above in such a manner as to give the final concentrations of 1, 3, 10, 30, 100, 300 and 1000 inhibition curves were prepared, and then the concentration at which 50% inhibition was achieved was taken as IC50.

Structure (SMILES): O=C(N[C@H]1Cc2ccccc2[C@H]2CCC[C@@H](C(=O)O)N2C1=O)[C@@H](S)Cc1ccccc1 [Comp. cpd. E-1, [4S-[4α,7α(R*),12bβ]]-7-[(1-oxo-2-(S)-thio-3-phenyl-propyl)amino]-1,2,3,4,6,7,8,12b-octahydro-6-oxopyrido-[2,1-a][2]benzazepine-4-carboxylic acid, reference compound]
- Decrease (%) in blood pressure after 1-3 hrs. ([1]; 3 mg/kg oral, after 1 hr): 15.4%
- Decrease (%) in blood pressure after 6 hrs. ([1]; 3 mg/kg oral): 12.9%
- Decrease (%) in blood pressure after 1-3 hrs. ([1]; 10 mg/kg oral, after 1 hr): 14.2%
- Decrease (%) in blood pressure after 6 hrs. ([1]; 10 mg/kg oral): 19.1%
- IC50 (ACE [2]): 9 nM
- IC50 (ACE [3]): 10.6 nM

Structure (SMILES): CC[C@H](C)[C@H](S)C(=O)NC1CCc2ccccc2N(CC(=O)O)C1=O (stereo partly drawn) [Example A-9, 1-Carboxymethyl-3-[(2S,3S)-2-mercapto-3-methylvarelylamino]-1H-[1]benzazepin-2-one]
- Decrease (%) in blood pressure after 1-3 hrs. ([1]; 1 mg/kg oral, after 2 hrs): 17.3%
- Decrease (%) in blood pressure after 6 hrs. ([1]; 1 mg/kg oral): 20.8%

Structure (SMILES): CC[C@H](C)[C@H](S)C(=O)N[C@H]1CCC[C@H]2SC[C@@H](C(=O)O)N2C1=O [Example C-8, [3R-[3α,6α,(S*),9aβ]]-6-[[(2S,3S)-3-methyl-1-oxo-2-thiopentyl]amino]-octahydro-5-oxothiazol[3,2-a]-azepine-3-carboxylic acid]
- Decrease (%) in blood pressure after 1-3 hrs. ([1]; 1 mg/kg oral, after 2 hrs): 28.4%
- Decrease (%) in blood pressure after 6 hrs. ([1]; 1 mg/kg oral): 25.3%
- IC50 (ACE [3]): 5.2 nM

Structure (SMILES): CC[C@H](C)[C@H](S)C(=O)N[C@H]1Cc2ccc(-c3ccccc3)cc2[C@H]2CCC[C@@H](C(=O)O)N2C1=O [Example C-14, [4S-[4α,7α(R*),12bβ]]-7-[[(2S,3S)-3-Methyl-1-oxo-2-thiopentyl]amino]-6-oxo-11-phenyl-1,2,3,4,6,7,8,12b-octahydropyrido[2,1-a][2]benzazepine-4-carboxylic acid]
- Decrease (%) in blood pressure after 1-3 hrs. ([1]; 1 mg/kg oral, after 3 hrs): 13.4%
- Decrease (%) in blood pressure after 6 hrs. ([1]; 1 mg/kg oral): 12.7%
- Decrease (%) in blood pressure after 1-3 hrs. ([1]; 3 mg/kg oral, after 3 hrs): 25.9%
- Decrease (%) in blood pressure after 6 hrs. ([1]; 3 mg/kg oral): 22.2%
- IC50 (ACE [2]): 11 nM

Structure (SMILES): CC(C)[C@H](S)C(=O)N[C@H]1Cc2ccc(-c3ccccc3)cc2[C@H]2CCC[C@@H](C(=O)O)N2C1=O [Example E-10, [4S-[4α,7α(R*),12bβ]]-7-[(S)-2-Mercapto-3-methylbutyrylamino]-6-oxo-11-phenyl-1,2,3,4,6,7,8,12b-octahydropyrido[2,1-a][2]benzazepine-4-carboxylic acid]
- IC50 (ACE [2]): 10 nM

Structure (SMILES): O=C(N[C@H]1CCC[C@H]2SC[C@@H](C(=O)O)N2C1=O)[C@@H](S)Cc1ccccc1 [Example F-17, [3R-[3α,6α(S*),9aβ]]-6-[[(S)-1-Oxo-2-thio-3-phenylpropyl]amino]-octahydro-5-oxothiazol[3,2-a]-azepine-3-carboxylic acid]
- IC50 (ACE [3]): 13.4 nM
